# Data: US20030181436A1, “Treatment for AIDS, HIV, and other related diseases and compounds for use therewith” (priority 2001, published 2003)
# What was measured:
# Assay type in all cases: cell-based
# [1] = tested on: CEM-SS cells chronically infected with SK-1; experiment: Chronically infected CEM/SK-1 cell assay, cell viability by MTS
# Method: At assay termination the assay plates were stained with the soluble tetrazolium-based dye MTS (CellTiter® Reagent, Promega) to determined cell viability and quantify compound toxicity. […] At termination of the assay 20 μL of MTS reagent was added per well. The wells were incubated for 4 h at 37° C., 5% CO2. Adhesive plate scalers were used in place of the lids, the sealed plate was inverted several times to mix the soluble formazan product and the plate was read spectrophotometrically at 490 nm with a 650 nm reference wavelength on a Molecular Devices Vmax plate reader.
# (§1) The chronically infected CEM cells were cultured and the assay performed in RPMI 1640 supplemental with 10% Fetal Bovine Serum (heat inactivated), 2 mM L-glutamine, 100 U/mL penicillin, […] and 10 ug/mL gentamycin. On day 3 cell-free supernatants were collected and cell viability measured by MTS dye reduction.
# [2] = tested on: HIV-1 attachment to HeLa CD4 LTR B-gal cells; experiment: Inhibition of attachment assay; conditions: for IC50: attachment assay
# Method: The attachment assay was performed with the HeLa CD4 LTR B-gal cells available from the AIDS Research and Reference Reagent Repository. […] HeLa CD4 LTR B-gal cells express cell surface CD4 and contain an LTR B-galactosidase reporter construct. Upon infection either the Tat protein incorporated into the virion or new Tat produced following virus integration and transcription trans-activate the LTR B-gal reporter, leading to expression of the B-galactosidase enzyme. HeLa CD4 LTR B-gal cells are routinely cultured with the required selection antibiotics and scrended for mycoplasma contamination. Twenty-four h prior to initiation of the assay cells were trypsinized, counted and 1×10^4 cells placed in a 0.2 cm well in media without selection antibiotics. Media was removed and compound media placed on the cells and incubated for 15 to 30 min at 37° C. A known titer of virus was then added to the wells and the incubation continued for 1 h. At the end of the incubation the wells were washed 6 times with media and the culture continued for 48 h. At 48 h the wells were washed one time with PBS and B-galactosidase enzyme expression determined by chemiluminescence per manufacturers instructions (Tropix Gal-screen TM, Tropix, Bedford, Mass.). Compound toxicity was monitored on sister plates using MTS dye reduction. (See Tables 14 through 16 and FIGS. 21 and 22).
# [3] = tested on: SK-1 strain of HIV in CEM-SS cells; experiment: Chronically infected CEM/SK-1 cell assay, RT values
# Method: Reverse transcriptase activity was measured in cell-free supernatants. Tritiated thymidine triphosphate (NEN) (TTP) was resuspended in distilled H2O at 5 Ci/mL. Poly rA and oligo dT were prepared as a stock solution which was kept at −20° C. The RT reaction buffer was prepared fresh on a daily basis and consists of 125 μL 1.0 M EGTA, 125 μL dH2O, 110 μL 10% SDS, 50 μL 1.0 M Tris (pH 7.4), 50 μL, 1.0 M DTT, and 40 μL 1.0 M MgCl2. These three solutions were mixed together in a ratio of 2 parts TTP, 1 part poly rA:oligo dT, and 1 part reaction buffer. Ten microliters of this reaction mixture was placed in a round bottom microtiter plate and 15 μL of virus containing supernatant was added and mixed. The plate was incubated at 37° C. in a water bath with a solid support to prevent submersion of the plate and incubated for 60 minutes. Following reaction, the reaction volume was spotted onto pieces of DE81 paper, washed 5 times for 5 minutes each in a 5% sodium phosphate buffer, 2 times for 1 minute each in distilled water, 2 times for 1 minute each in 70% ethanol, and then dried. Opti-Fluor O was added to each sample and incorporated radioactivity was quantitated utilizing a Wallac 1450 Microbetaplus liquid scintillation counter.
# as §1, with “reduction. (See Table 13 and FIG. 20).” for “reduction.”
# HIV = experiment: PBMC time of addition assay
# Source text: FIGS. 18 and 19 show the results of the time of addition assay with the K and Z compound. In time of addition assays the timed addition of compounds after initial infection allows the identification of specific stages of virus replication. This is seen with the positive control compound AZT. AZT is a reverse transcriptase inhibitor. […] Thus it has an antiviral target that is occurring after completion of reverse transcription. […] In general since this time of addition uses multiple rounds of infection in the PBMCs versus a single round in cell lines systems, lower concentrations of compound will often shift the curve to the left. This is seen in FIG. 18.
substance,measurement,setting,value
Zinc Iodiscorbate [Compound Z],TOXICITY VALUES (MTS) MEAN,[1]; 0.625 μG/Ml,1.757 O. D.
same,TOXICITY VALUES (MTS) MEAN,[1]; 2 μG/Ml,1.655 O. D.
same,% CC,[1]; 6.25 μG/Ml,35.8%
same,TOXICITY VALUES (MTS) MEAN,[1]; 6.25 μG/Ml,0.631 O. D.
same,% CC,[1]; 20 μG/Ml,31.4%
same,TOXICITY VALUES (MTS) MEAN,[1]; 20 μG/Ml,0.553 O. D.
same,% CC,[1]; 62.5 μG/Ml,17.1%
same,TOXICITY VALUES (MTS) MEAN,[1]; 62.5 μG/Ml,0.301 O. D.
same,% CC,[1]; 200 μG/Ml,0.6%
same,TOXICITY VALUES (MTS) MEAN,[1]; 200 μG/Ml,0.011 O. D.
same,TC50,[1]; CEMSK1 chronic infection,ITC50 (ug/ml) = 5.22
same,efficacy in HeLa CD4 LTR β-gal attachment assay,[2],inactive
same,% VC,[2]; 0.32 μG/Ml,90.2%
same,% VC,[2]; 1 μG/Ml,94.8%
same,% VC,[2]; 3.2 μG/Ml,74.5%
same,% VC,[2]; 10 μG/Ml,62.4%
same,% VC,[2]; 32 μG/Ml,54.4%
same,% VC,[2]; 100 μG/Ml,66.8%
same,IC50,[2],>100 µg/mL
same,IC50,[2]; listed as COMPOUND Z,IC50 (μG/mL) = >100 μg/mL
same,% VC,[3]; 0.625 μG/Ml,95.1%
same,RT VALUES (cpm) MEAN,[3]; 0.625 μG/Ml,9997.0 cpm
same,% VC,[3]; 2 μG/Ml,96.8%
same,RT VALUES (cpm) MEAN,[3]; 2 μG/Ml,10178.7 cpm
same,% VC,[3]; 6.25 μG/Ml,16.8%
same,RT VALUES (cpm) MEAN,[3]; 6.25 μG/Ml,1761.0 cpm
same,% VC,[3]; 20 μG/Ml,1.2%
same,RT VALUES (cpm) MEAN,[3]; 20 μG/Ml,128.0 cpm
same,% VC,[3]; 62.5 μG/Ml,1.0%
same,RT VALUES (cpm) MEAN,[3]; 62.5 μG/Ml,104.0 cpm
same,% VC,[3]; 200 μG/Ml,0.5%
same,RT VALUES (cpm) MEAN,[3]; 200 μG/Ml,48.0 cpm
same,IC50,[3]; CEMSK1 chronic infection,IC50 (μG/Ml) = 4.49
Potassium Iodiscorbate [Compound K],suppression of virus replication,"HIV; 6.4 μg/ml, added at 4 h",no inhibition
same,suppression of virus replication,"HIV; 6.4 μg/ml, added at 9 h",71%
same,suppression of virus replication,"HIV; 64 μg/ml, added 49 h post infection",75%
same,suppression of virus replication,"HIV; 64 μg/ml, added at 4 h",35%
same,suppression of virus replication,"HIV; 64 μg/ml, added at 9 h",87%
